Experimental data taken from patent US7700602B2, “Amino-5,5-diphenylimidazolone derivatives for the inhibition of β-secretase” (Wyeth LLC, priority 2004, dated 2010).

Experiments:
[1] = target: human BACE1 (Homo sapiens, UniProt P56817); test: Fluorescent kinetic assay, inhibition of BACE1 (WABC-6 peptide substrate); format: biochemical; settings: 10 nM enzyme, 25 μM substrate WABC-6, pH 4.5, room temperature; read-out: IC50 (μM) BACE1;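 also: fluorescence monitored at 320 nm excitation and 420 nm emission every 40 s over 30 min, with the substrate cleavage rate taken from the linear slope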
human BACE1, sequence (P56817 46-501): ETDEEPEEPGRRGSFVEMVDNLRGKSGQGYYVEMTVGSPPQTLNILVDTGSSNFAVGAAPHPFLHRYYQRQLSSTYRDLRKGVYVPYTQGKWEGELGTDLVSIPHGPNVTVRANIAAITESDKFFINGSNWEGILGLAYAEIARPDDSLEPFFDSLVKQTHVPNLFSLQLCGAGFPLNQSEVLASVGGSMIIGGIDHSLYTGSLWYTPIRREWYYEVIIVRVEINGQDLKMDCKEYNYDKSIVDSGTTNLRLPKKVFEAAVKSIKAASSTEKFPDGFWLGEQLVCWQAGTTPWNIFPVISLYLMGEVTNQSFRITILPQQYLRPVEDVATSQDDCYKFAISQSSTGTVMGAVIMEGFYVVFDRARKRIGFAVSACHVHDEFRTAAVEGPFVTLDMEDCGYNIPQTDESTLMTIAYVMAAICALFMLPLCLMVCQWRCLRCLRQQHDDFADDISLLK

[2] = target: T1, human BACE2 (Homo sapiens, UniProt Q9Y5Z0); test: Fluorescent Kinetic Assay for Human Recombinant BACE 2 (selectivity BACE1/BACE2); format: biochemical; settings: selectivity BACE1 over BACE2; 1.5 nM human BACE2, 25 μM substrate, pH 4.5;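 also: cleavage rate from the linear slope of fluorescence (excitation 320 nm, emission 420 nm) recorded every 40 s over 30 min at room temperature, sodium acetate buffer with 0.05% CHAPS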
T1 sequence (Q9Y5Z0 63-518): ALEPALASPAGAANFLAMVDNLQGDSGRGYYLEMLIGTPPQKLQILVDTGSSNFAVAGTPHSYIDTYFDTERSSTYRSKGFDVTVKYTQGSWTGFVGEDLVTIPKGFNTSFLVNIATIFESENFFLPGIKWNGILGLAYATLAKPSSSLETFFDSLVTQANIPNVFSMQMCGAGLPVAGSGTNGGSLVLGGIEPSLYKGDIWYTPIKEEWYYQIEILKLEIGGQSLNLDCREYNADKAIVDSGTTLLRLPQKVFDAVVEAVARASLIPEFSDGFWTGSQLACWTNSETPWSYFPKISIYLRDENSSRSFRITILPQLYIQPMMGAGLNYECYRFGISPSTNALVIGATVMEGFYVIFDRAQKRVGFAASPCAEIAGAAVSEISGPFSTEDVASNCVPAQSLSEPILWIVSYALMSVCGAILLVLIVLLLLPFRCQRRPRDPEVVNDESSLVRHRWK

Structure (SMILES)	melting point [°C]	IC50 [1] [µM]	BACE1/BACE2 selectivity [2]
CCCNC1=NC(c2cccc(-c3cncnc3)c2)(c2ccc(OCCC)c(C)c2)C(=O)N1C (stereo not drawn)	64 to 66		
COc1cc(C2(c3cccc(-c4cccnc4)c3)N=C(N)N(C)C2=O)cc(OC)c1OC (stereo not drawn) [Example 23]	104 to 107	0.01 to 0.1	II (II = 10-100-fold selectivity)
CN1C(=O)C(c2cccc(OC(F)(F)F)c2)(c2cccc(-c3cccnc3)c2)N=C1N (stereo not drawn) [Example 25]	198	0.01 to 0.1	II (II = 10-100-fold selectivity)
CN1C(=O)C(c2cccc(-c3cccnc3)c2)(c2ccc(OC(F)(F)F)c(C(F)(F)F)c2)N=C1N (stereo not drawn) [Example 26]	98	0.01 to 0.1	II (II = 10-100-fold selectivity)
CCOc1ccc(C2(c3ccc(F)c(-c4cccnc4)c3)N=C(N)N(C)C2=O)cc1OCC (stereo not drawn) [Example 27]	99 to 100	0.01 to 0.1	II (II = 10-100-fold selectivity)
CN1C(=O)C(c2ccc(OC(F)(F)F)c(Cl)c2)(c2ccc(F)c(-c3cccnc3)c2)N=C1N (stereo not drawn) [Example 28]	99 to 102	0.01 to 0.1	II (II = 10-100-fold selectivity)
COc1ccc(C2(c3cccc(-c4ccncc4)c3)N=C(N)N(C)C2=O)cc1C (stereo not drawn) [Example 36, 2-Amino-5-(4-methoxy-3-methylphenyl)-3-methyl-5-(3-pyridin-4-ylphenyl)-3,5-dihydro-4H-imidazol-4-one]	175	0.01 to 0.1	III (III = <10-fold selectivity)
CN1C(=O)C(c2ccc(OC(F)(F)F)c(F)c2)(c2ccc(F)c(-c3cncc(Cl)c3)c2)N=C1N (stereo not drawn) [Example 42]	201 to 203	0.11 to 1	II (II = 10-100-fold selectivity)
CCOc1ccc(C2(c3cccc(-c4cncnc4)c3)N=C(N)N(C)C2=O)cc1OCC (stereo not drawn) [Example 44]	100 to 105	0.01 to 0.1	II (II = 10-100-fold selectivity)
CN1C(=O)C(c2ccc(OC(F)(F)F)cc2)(c2ccc(F)c(-c3cncc(Cl)c3)c2)N=C1N (stereo not drawn) [Example 46]	241 to 243	0.11 to 1	II (II = 10-100-fold selectivity)
CN1C(=O)C(c2ccc(OC(F)(F)F)cc2)(c2ccc(F)c(-c3cncc(F)c3)c2)N=C1N (stereo not drawn) [Example 47]	216 to 218	0.11 to 1	II (II = 10-100-fold selectivity)
CN1C(=O)C(c2ccc(OC(F)(F)F)cc2)(c2ccc(Cl)c(-c3cncnc3)c2)N=C1N (stereo not drawn) [Example 49]	124 to 129	0.11 to 1	I (I = >100-fold selectivity)
CN1C(=O)C(c2ccc(OC(F)(F)F)cc2)(c2ccc(F)c(-c3cccnc3)c2)N=C1N (stereo not drawn) [Example 50]	134	0.01 to 0.1	II (II = 10-100-fold selectivity)
COc1cncc(-c2cccc(C3(c4ccc(OC(F)(F)F)cc4)N=C(N)N(C)C3=O)c2)c1 (stereo not drawn) [Example 51]	212	0.01 to 0.1	III (III = <10-fold selectivity)
COc1ccc(C2(c3ccc(F)c(-c4cncnc4)c3)N=C(N)N(C)C2=O)cc1C(F)(F)F (stereo not drawn) [Example 56]	115	0.01 to 0.1	I (I = >100-fold selectivity)
CCOc1ccc(C2(c3ccc(F)c(-c4cncnc4)c3)N=C(N)N(C)C2=O)cc1OCC (stereo not drawn) [Example 86]	95 to 98	0.01 to 0.1	I (I = >100-fold selectivity)

Structure (SMILES)	melting point [°C]	IC50 [1] [µM]	BACE1/BACE2 selectivity [2]
CN1C(=O)C(c2ccc(SC(F)(F)F)cc2)(c2ccc(F)c(-c3cccnc3F)c2)N=C1N (stereo not drawn) [Example 93]	95	0.01 to 0.1	II (II = 10-100-fold selectivity)
CN1C(=O)C(c2ccc(SC(F)(F)F)cc2)(c2ccc(F)c(-c3cncnc3)c2)N=C1N (stereo not drawn) [Example 94]	183	0.11 to 1	II (II = 10-100-fold selectivity)
CN1C(=O)C(c2ccc(OC(F)F)cc2)(c2ccc(F)c(-c3cccnc3)c2)N=C1N (stereo not drawn) [Example 95]	104 to 106	0.01 to 0.1	II (II = 10-100-fold selectivity)
Cc1cc(C2(c3cccc(-c4cncnc4)c3)N=C(N)N(C)C2=O)ccc1O[C@H](C)c1ccccc1 (stereo partly drawn) [Example 131, 2-amino-3-methyl-5-{3-methyl-4-[(1R)-1-phenylethoxy]phenyl}-5-(3-pyrimidin-5-ylphenyl)-3,5-dihydro-4H-imidazol-4-one]	112 to 114	0.01 to 0.1	
CN1C(=O)[C@](c2ccc(OC(F)F)cc2)(c2cccc(-c3ccc(F)nc3)c2)N=C1N [Example 135A, (5S)-2-Amino-5-[4-(difluoromethoxy)phenyl]-5-[3-(6-fluoropyridin-3-yl)phenyl]-3-methyl-3,5-dihydro-4H-imidazol-4-one]		> 1	III (III = <10-fold selectivity)
CN1C(=O)[C@@](c2ccc(OC(F)F)cc2)(c2cccc(-c3ccc(F)nc3)c2)N=C1N [Example 135B, (5R)-2-Amino-5-[4-(difluoromethoxy)phenyl]-5-[3-(6-fluoropyridin-3-yl)phenyl]-3-methyl-3,5-dihydro-4H-imidazol-4-one]		0.01 to 0.1	II (II = 10-100-fold selectivity)
CCOc1ccc([C@]2(c3ccc(F)c(-c4cccnc4F)c3)N=C(N)N(C)C2=O)cc1OCC [Example 136A, (5S)-2-Amino-5-(3,4-diethoxyphenyl)-5-[4-fluoro-3-(2-fluoropyridin-3-yl)phenyl]-3-methyl-3,5-dihydro-4H-imidazol-4-one]		0.01 to 0.1	II (II = 10-100-fold selectivity)
CN1C(=O)[C@](c2ccc(OC(F)F)cc2)(c2cccc(-c3cc(F)cnc3F)c2)N=C1N [Example 137A, (5S)-2-Amino-5-[4-(difluoromethoxy)phenyl]-5-[3-(2,5-difluoropyridin-3-yl)phenyl]-3-methyl-3,5-dihydro-4H-imidazol-4-one]		> 1	III (III = <10-fold selectivity)
CN1C(=O)[C@@](c2ccc(OC(F)F)cc2)(c2cccc(-c3cc(F)cnc3F)c2)N=C1N [Example 137B, (5R)-2-Amino-5-[4-(difluoromethoxy)phenyl]-5-[3-(2,5-difluoropyridin-3-yl)phenyl]-3-methyl-3,5-dihydro-4H-imidazol-4-one]		0.01 to 0.1	II (II = 10-100-fold selectivity)
CN1C(=O)[C@](c2ccc(OCCF)cc2)(c2ccc(F)c(-c3cncnc3)c2)N=C1N [Example 139A, (5S)-2-Amino-5-[4-(2-fluoroethoxy)phenyl]-5-(4-fluoro-3-pyrimidin-5-ylphenyl)-3-methyl-3,5-dihydro-4H-imidazol-4-one]		0.01 to 0.1	I (I = >100-fold selectivity)
CN1C(=O)[C@@](c2ccc(OCCF)cc2)(c2ccc(F)c(-c3cncnc3)c2)N=C1N [Example 139B, (5R)-2-Amino-5-[4-(2-fluoroethoxy)phenyl]-5-(4-fluoro-3-pyrimidin-5-ylphenyl)-3-methyl-3,5-dihydro-4H-imidazol-4-one]		0.11 to 1	III (III = <10-fold selectivity)
COc1ccc([C@@]2(c3ccc(F)c(-c4cncc(F)c4)c3)N=C(N)N(C)C2=O)cc1 [Example 142A, (5S)-2-Amino-5-[4-fluoro-3-(5-fluoropyridin-3-yl)phenyl]-5-(4-methoxyphenyl)-3-methyl-3,5-dihydro-4H-imidazol-4-one]		> 1	III (III = <10-fold selectivity)
COc1ccc([C@]2(c3ccc(F)c(-c4cncc(F)c4)c3)N=C(N)N(C)C2=O)cc1 [Example 142B, (5R)-2-Amino-5-[4-fluoro-3-(5-fluoropyridin-3-yl)phenyl]-5-(4-methoxyphenyl)-3-methyl-3,5-dihydro-4H-imidazol-4-one]		0.01 to 0.1	II (II = 10-100-fold selectivity)
COc1ccc([C@@]2(c3ccc(F)c(-c4cnccc4F)c3)N=C(N)N(C)C2=O)cc1 [Example 143A, (5S)-2-Amino-5-[4-fluoro-3-(4-fluoropyridin-3-yl)phenyl]-5-(4-methoxyphenyl)-3-methyl-3,5-dihydro-4H-imidazol-4-one]		> 1	III (III = <10-fold selectivity)
COc1ccc([C@]2(c3ccc(F)c(-c4cnccc4F)c3)N=C(N)N(C)C2=O)cc1 [Example 143B, (5R)-2-Amino-5-[4-fluoro-3-(4-fluoropyridin-3-yl)phenyl]-5-(4-methoxyphenyl)-3-methyl-3,5-dihydro-4H-imidazol-4-one]		0.01 to 0.1	II (II = 10-100-fold selectivity)
CN1CC(c2ccc(OC(F)(F)F)cc2)(c2ccc(F)c(-c3cccnc3F)c2)N=C1N (stereo not drawn) [Example 144, 4-[4-Fluoro-3-(2-fluoropyridin-3-yl)phenyl]-1-methyl-4-(4-trifluoromethoxyphenyl)-4,5-dihydro-1H-imidazol-2-ylamine]		0.11 to 1	I (I = >100-fold selectivity)
